From patent US12059453B2, “Blood plasma fractions for use in muscle regeneration” (Alkahest, Inc., priority 2019, dated 2024) come the findings set out here.

This experiment concerns C2C12 cells. The experiment is described as follows: IGF-1 versus PPF1 dose-response on glucose utilization, C2C12 cells in 2% horse serum. The experiment is classed as cell-based. As to conditions: treatment day 5, read day 6. How it is done: FIG. 16A and FIG. 16B report the effects of insulin-like growth factor-1 (IGF-1) on glucose utilization in C2C12 cells treated in 2% horse serum. Cells were plated in DMEM plus 4.5 g/L of glucose and 10% fetal bovine serum (FBS) at Day −2 (d−2). At Day 0 (d0) media was refreshed with DMEM plus 1 g/L glucose and 2% horse serum. At Day 5 (d5) various treatments were added with glucose utilization determined at Day 6 (d6). […] Recombinant human IGF1 was purchased from R&D Systems (Cat. 291-G1). […] IGF-1 is known to have an impact on metabolism of myotubes, and its presence in PPF1 has been calculated as approximately 14.88 ng/mL. […] Thus, other factors must necessarily be involved in the effects of PPF1.

As for “recombinant human IGF-1: Recombinant human IGF1 purchased from R&D Systems (Cat. 291-G1)”, the “EC50, glucose utilization” value worked out at 0.01743 µg/mL.
